Read-outs that look alike come from different tables or passages of the source.
Experiments:
[1] = system: P-gp; assay: P-gp substrate test in transfected MDCK cells; format: in vitro ADME
[2] = system: major human CYP isozymes; assay: CYP inhibition; format: in vitro ADME
[3] = in vitro metabolism; format: in vitro ADME
[4] = pharmacokinetics in Sprague-Dawley rat; format: in vivo; details: IV 1 mg/kg, 10% 2-HP-β-CD
[5] = oral dosing of SD rats: exposure, GABAA related effects, toxicity; format: in vivo, SD rat; details: for effects attributable to GABAA binding (CNS effects): SD rats dosed orally; for toxicities observed at the maximum tolerated dose: SD rats, orally for seven consecutive days
[6] = Phase I; cited from earlier work
[7] = system: human tumor xenografts; details: cited from earlier work
[8] = brain total exposure in nude mice; details: for AUC brain (AUC0–8h) / brain Cmax: sodium salts PO 30 mg/kg
[9] = stability in human S9 fraction; format: in vitro ADME

Compound | substrate of P-gp [1] | IC50 ([2]; human) | in vitro metabolism [3] | CL [4] | effects attributable to GABAA binding (CNS effects) [5] | toxicities observed at the maximum tolerated dose [5] | incidence of somnolence [6] | tumor growth inhibition ([7]; multiple human tumor xenograft models) | AUC brain (AUC0–8h) [8] | brain Cmax [8] | brain AUC reduction ([8]; compared with MLN8054) | CYP inhibition ([2]; concentrations up to 100 μM) | tumor growth inhibition ([7]; multiple xenograft efficacy models in immunocompromised mice) | stability in human S9 fraction [9]
COc1cc(Nc2ncc3c(n2)-c2ccc(Cl)cc2C(c2c(F)cccc2OC)=NC3)ccc1C(=O)O [alisertib (10)] | not a substrate of P-gp | > 100 µM | low and is mediated through multiple CYP isoforms and UGTs | 10.4 mL min^–1 kg^–1 | No effects attributable to GABAA binding were observed | myelosuppression and mucositis | not dose limiting | significant tumor growth inhibition | 2000 ng·h/mL | 420 ng/mL | – | – | – | –
COc1cccc(F)c1C1=NCc2cnc(Nc3ccc(C(=O)O)cc3)nc2-c2ccc(Cl)cc21 [compound 9] | – | – | – | – | No effects attributable to GABAA binding were observed | – | – | – | 3500 ng·h/mL | 930 ng/mL | 3 fold | – | – | –
O=C(O)c1ccc(Nc2ncc3c(n2)-c2ccc(Cl)cc2C(c2c(F)cccc2F)=NC3)cc1 [MLN8054 (8)] | not a substrate of P-gp | – | predominantly through CYP1A2 and 3A4 | – | reversible central nervous system (CNS) effects | myelosuppression and mucositis | – | – | 12500 ng·h/mL | 2600 ng/mL | – | no CYP inhibition is observed | Significant tumor growth inhibition, with no overt toxicity | –
O=C(O)c1ccc(Nc2ncc3c(n2)-c2ccc(Cl)cc2C(c2ccccc2F)=NC3)cc1 [compound 7] | – | – | – | – | – | – | – | – | – | – | – | – | – | stable in human S9 fraction
